Molecules are shown by their SMILES.

The target in this assay is T1, purified human Factor XIa (Homo sapiens, UniProt P03951).
T1 construct: purchased Haematologic Technologies
T1 sequence (P03951 388-625 limits assumed): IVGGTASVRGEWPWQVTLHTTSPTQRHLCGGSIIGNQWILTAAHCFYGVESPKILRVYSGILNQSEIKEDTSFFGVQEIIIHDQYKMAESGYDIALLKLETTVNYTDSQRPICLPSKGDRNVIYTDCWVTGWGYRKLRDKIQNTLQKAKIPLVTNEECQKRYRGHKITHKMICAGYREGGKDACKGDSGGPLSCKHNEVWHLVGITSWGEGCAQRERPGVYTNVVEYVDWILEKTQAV
T1 sequence (P03951 19-387 partner limits assumed): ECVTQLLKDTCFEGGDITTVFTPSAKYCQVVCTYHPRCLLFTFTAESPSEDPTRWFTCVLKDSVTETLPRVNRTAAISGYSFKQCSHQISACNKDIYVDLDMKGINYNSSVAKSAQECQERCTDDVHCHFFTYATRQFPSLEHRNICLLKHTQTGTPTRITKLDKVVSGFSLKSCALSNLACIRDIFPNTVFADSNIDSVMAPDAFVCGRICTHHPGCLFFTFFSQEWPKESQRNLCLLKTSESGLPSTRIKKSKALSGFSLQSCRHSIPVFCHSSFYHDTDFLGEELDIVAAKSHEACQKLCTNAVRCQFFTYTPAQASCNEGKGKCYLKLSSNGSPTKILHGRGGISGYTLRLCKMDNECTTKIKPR
Kind of assay: Factor XIa enzyme inhibition assay (chromogenic substrate S-2366), Ki. The assay is classed as biochemical. To be noted: substrate S-2366, pH 7.4. The method in brief:
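Purified human Factor XIa ([…] final) with chromogenic substrate S-2366 (0.0002-0.001 M) in 50 mM HEPES pH 7.4, 145 mM NaCl, 5 mM KCl, 0.1% PEG 8000. Velocities measured over 20-180 minutes with and without inhibitor; Ki derived assuming competitive inhibition, e.g. Ki=IC50/(1+S/Km).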
For orientation: Ki means the dissociation constant of the complex between target and ligand, obtained from inhibition or displacement. A high value points to weaker binding. In turn, `O=C(NCc1n[nH]c2c1CCCC2)[C@H](Cc1ccccc1)n1cnc(-c2cc(Cl)ccc2-n2cc(Cl)nn2)cc1=O` [Example 91, (S)-2-(4-(5-chloro-2-(4-chloro-1H-1,2,3-triazol-1-yl)phenyl)-6-oxopyrimidin-1(6H)-yl)-3-phenyl-N-((4,5,6,7-tetrahydro-1H-indazol-3-yl)methyl)propanamide] gave a Ki of 2850 nM. The result for `N#Cc1ccc(NC(=O)[C@H](Cc2ccccc2)n2cnc(-c3cc(Cl)ccc3-n3cc(Cl)nn3)cc2=O)cc1F` [Example 92, (S)-2-(4-(5-chloro-2-(4-chloro-1H-1,2,3-triazol-1-yl)phenyl)-6-oxopyrimidin-1(6H)-yl)-N-(4-cyano-3-fluorophenyl)-3-phenylpropanamide] reads 126 nM. Consider `Cc1nccn1-c1ccc(NC(=O)[C@H](Cc2ccccc2)n2cnc(-c3cc(Cl)ccc3-n3cc(Cl)nn3)cc2=O)cc1` [Example 93, (S)-2-(4-(5-chloro-2-(4-chloro-1H-1,2,3-triazol-1-yl)phenyl)-6-oxopyrimidin-1(6H)-yl)-N-(4-(2-methyl-1H-imidazol-1-yl)phenyl)-3-phenylpropanamide], for which the Ki was 111 nM. The result for `O=C(Nc1ccc(-n2ccnc2)cc1)[C@H](Cc1ccccc1)n1cnc(-c2cc(Cl)ccc2-n2cc(Cl)nn2)cc1=O` [Example 94, (S)-N-(4-(1H-imidazol-1-yl)phenyl)-2-(4-(5-chloro-2-(4-chloro-1H-1,2,3-triazol-1-yl)phenyl)-6-oxopyrimidin-1(6H)-yl)-3-phenylpropanamide] reads 25.7 nM. In the case of `CN(C)Cc1nccn1-c1ccc(NC(=O)[C@H](Cc2ccccc2)n2cnc(-c3cc(Cl)ccc3-n3cc(Cl)nn3)cc2=O)c(F)c1` [Example 95, (S)-2-(4-(5-chloro-2-(4-chloro-1H-1,2,3-triazol-1-yl)phenyl)-6-oxopyrimidin-1(6H)-yl)-N-(4-(2-((dimethylamino)methyl)-1H-imidazol-1-yl)-2-fluorophenyl)-3-phenylpropanamide] it was 783 nM. In the case of `O=C1NCCc2cc(NC(=O)[C@H](Cc3ccccc3)n3cnc(-c4cc(Cl)ccc4-n4cc(Cl)nn4)cc3=O)ccc21` [Example 97, (S)-2-(4-(5-chloro-2-(4-chloro-1H-1,2,3-triazol-1-yl)phenyl)-6-oxopyrimidin-1(6H)-yl)-N-(1-oxo-1,2,3,4-tetrahydroisoquinolin-6-yl)-3-phenylpropanamide] it was 27.8 nM; in that of `Nc1n[nH]c2ccc(NC(=O)[C@H](Cc3ccccc3)n3cnc(-c4cc(Cl)ccc4-n4cc(Cl)nn4)cc3=O)cc12` [Example 98, (S)-N-(3-amino-1H-indazol-5-yl)-2-(4-(5-chloro-2-(4-chloro-1H-1,2,3-triazol-1-yl)phenyl)-6-oxopyrimidin-1(6H)-yl)-3-phenylpropanamide], 554 nM; in that of `O=C([C@H](Cc1ccccc1)n1cnc(-c2cc(Cl)ccc2-n2cc(Cl)nn2)cc1=O)N1CCn2ncnc2C1` [Example 99, (S)-6-(5-chloro-2-(4-chloro-1H-1,2,3-triazol-1-yl)phenyl)-3-(1-(5,6-dihydro-[1,2,4]triazolo[1,5-a]pyrazin-7(8H)-yl)-1-oxo-3-phenylpropan-2-yl)pyrimidin-4(3H)-one], 7370 nM. Regarding `O=C(NCCc1cnccn1)[C@H](Cc1ccccc1)n1cnc(-c2cc(Cl)ccc2-n2cc(Cl)nn2)cc1=O` [Example 100, (S)-2-(4-(5-chloro-2-(4-chloro-1H-1,2,3-triazol-1-yl)phenyl)-6-oxopyrimidin-1(6H)-yl)-3-phenyl-N-(2-(pyrazin-2-yl)ethyl)propanamide], the inhibition constant Ki came out at 7050 nM. In the case of `O=C1OCC[C@@H]1NC(=O)[C@H](Cc1ccccc1)n1cnc(-c2cc(Cl)ccc2-n2cc(Cl)nn2)cc1=O` [Example 101, (S)-2-(4-(5-chloro-2-(4-chloro-1H-1,2,3-triazol-1-yl)phenyl)-6-oxopyrimidin-1(6H)-yl)-N-((S)-2-oxotetrahydrofuran-3-yl)-3-phenylpropanamide] it was 7810 nM. In the case of `CC(=O)NC1CCN(C(=O)[C@H](Cc2ccccc2)n2cnc(-c3cc(Cl)ccc3-n3cc(Cl)nn3)cc2=O)CC1` [Example 102, (S)-N-(1-(2-(4-(5-chloro-2-(4-chloro-1H-1,2,3-triazol-1-yl)phenyl)-6-oxopyrimidin-1(6H)-yl)-3-phenylpropanoyl)piperidin-4-yl)acetamide] it was 3050 nM; in that of `O=C(NC1CCC(O)CC1)[C@H](Cc1ccccc1)n1cnc(-c2cc(Cl)ccc2-n2cc(Cl)nn2)cc1=O` (stereo partly drawn) [Example 103, (S)-2-(4-(5-chloro-2-(4-chloro-1H-1,2,3-triazol-1-yl)phenyl)-6-oxopyrimidin-1(6H)-yl)-N-(4-hydroxycyclohexyl)-3-phenylpropanamide], 127 nM; in that of `O=C(NC1CCCCC1)[C@H](Cc1ccccc1)n1cnc(-c2cc(Cl)ccc2-n2cc(Cl)nn2)cc1=O` [Example 104, (S)-2-(4-(5-chloro-2-(4-chloro-1H-1,2,3-triazol-1-yl)phenyl)-6-oxopyrimidin-1(6H)-yl)-N-cyclohexyl-3-phenylpropanamide], 231 nM. In the case of `Cn1ccc(CNC(=O)[C@H](Cc2ccccc2)n2cnc(-c3cc(Cl)ccc3-n3cc(Cl)nn3)cc2=O)n1` [Example 105, (S)-2-(4-(5-chloro-2-(4-chloro-1H-1,2,3-triazol-1-yl)phenyl)-6-oxopyrimidin-1(6H)-yl)-N-((1-methyl-1H-pyrazol-3-yl)methyl)-3-phenylpropanamide] it was 2290 nM.

`Cc1ccc(NC(=O)[C@H](Cc2ccccc2)n2cnc(-c3cc(Cl)ccc3-n3cc(Cl)nn3)cc2=O)nn1` [Example 106, (S)-2-(4-(5-chloro-2-(4-chloro-1H-1,2,3-triazol-1-yl)phenyl)-6-oxopyrimidin-1(6H)-yl)-N-(6-methylpyridazin-3-yl)-3-phenylpropanamide] yielded a Ki of 325 nM. The result for `CC1=NN=C(NC(=O)[C@H](Cc2ccccc2)n2cnc(-c3cc(Cl)ccc3-n3cc(Cl)nn3)cc2=O)SC1` [Example 107, (S)-2-(4-(5-chloro-2-(4-chloro-1H-1,2,3-triazol-1-yl)phenyl)-6-oxopyrimidin-1(6H)-yl)-N-(5-methyl-6H-1,3,4-thiadiazin-2-yl)-3-phenylpropanamide] reads 4550 nM; that for `O=C(O)C[C@H]1CC[C@H](NC(=O)[C@H](Cc2ccccc2)n2cnc(-c3cc(Cl)ccc3-n3cc(Cl)nn3)cc2=O)CC1` [Example 108, 2-((1S,4r)-4-((S)-2-(4-(5-chloro-2-(4-chloro-1H-1,2,3-triazol-1-yl)phenyl)-6-oxopyrimidin-1(6H)-yl)-3-phenylpropanamido)cyclohexyl)acetic acid], 220 nM. The result for `O=C(Nc1ncnc2[nH]ncc12)[C@H](Cc1ccccc1)n1cnc(-c2cc(Cl)ccc2-n2cc(Cl)nn2)cc1=O` [Example 109, (S)-2-(4-(5-chloro-2-(4-chloro-1H-1,2,3-triazol-1-yl)phenyl)-6-oxopyrimidin-1(6H)-yl)-3-phenyl-N-(1H-pyrazolo[3,4-d]pyrimidin-4-yl)propanamide] reads 150 nM; that for `O=C(Nc1nnc(C2CCC2)[nH]1)[C@H](Cc1ccccc1)n1cnc(-c2cc(Cl)ccc2-n2cc(Cl)nn2)cc1=O` [Example 110, (S)-2-(4-(5-chloro-2-(4-chloro-1H-1,2,3-triazol-1-yl)phenyl)-6-oxopyrimidin-1(6H)-yl)-N-(5-cyclobutyl-4H-1,2,4-triazol-3-yl)-3-phenylpropanamide], 257 nM.

The record behind these values is US10336730B2, “Substituted glycine derived FXIA inhibitors” (BRISTOL-MYERS SQUIBB COMPANY, priority 2015, dated 2019).
